Experimental data published in US20080139649A1, “Fatty Acid-Benzenediol Derivatives and Methods of Making and Using Thereof” (priority 2005, published 2008).

Assay: Solubility of CoQ10 in fish oil and fish oil concentrates under different conditions and time of storage
Format: physicochemical
Details: for Solubility of CoQ10 in 1812TG, confirmed solubility / Solubility of CoQ10 in 4020EE, confirmed solubility: heating prior storage
From the text: CoQ10 was solubilized in 0355 EE (fish oil concentrate in ethylester form containing 3% EPA and 55% DHA), 4020EE (fish oil concentrate in ethylester form containing 40% EPA and 20% DHA) and 1812TG (purified fish oil containing 18% EPA and 12% of DHA) and the final solubility was examined under different conditions and time of storage. All of these starting oils were manufactured by Ocean Nutrition Canada, Mulgrave, NS).

With `COC1=C(OC)C(=O)C(C/C=C(\C)CC/C=C(\C)CC/C=C(\C)CC/C=C(\C)CC/C=C(\C)CC/C=C(\C)CC/C=C(\C)CC/C=C(\C)CC/C=C(\C)CCC=C(C)C)=C(C)C1=O` [CoQ10ox, 2,3-dimethyoxy-5-methyl-6-decaprenyl-1,4-benzoquinone] the “Solubility of CoQ10 in 0355EE, confirmed solubility” value (“Solubility of CoQ10 in 0355EE” below) (0355EE (ethylester concentrate, 3% EPA, 55% DHA), solubility at RT, no heating prior storage) was 6.6 %, w/w, the “Solubility of CoQ10 in 0355EE” value (0355EE, solubility at 50° C.) was 27%, w/w and the “Solubility of CoQ10 in 0355EE” value (0355EE, storage at 4° C. (line after solubility at 50° C.)) was 3.2%, w/w. For the same compound, the “Solubility of CoQ10 in 0355EE” value (0355EE, storage at 4° C. for 24 h, no heating prior storage) was 2.5 %, w/w, the “Solubility of CoQ10 in 1812TG, confirmed solubility” value (1812TG (purified fish oil, 18% EPA, 12% DHA), solubility at 50° C.) was 11 %, w/w and the “Solubility of CoQ10 in 1812TG, confirmed solubility” value (1812TG, storage at 4° C.) was <2.9 %, w/w. For the same compound, the “Solubility of CoQ10 in 4020EE, confirmed solubility” value (4020EE (ethylester concentrate, 40% EPA, 20% DHA), solubility at 50° C.) was 9 %, w/w and the “Solubility of CoQ10 in 4020EE, confirmed solubility” value (4020EE, storage at 4° C.) was 5.7 %, w/w.
